Patent US20220324860A1, “SUBSTITUTED PYRAZOLO[4,3-b]PYRIDINES AND THEIR USE AS GLUN2B RECEPTOR MODULATORS” (JANSSEN PHARMACEUTICA NV, priority 2019, published 2022)

Experiment: Liver microsomal stability (extraction ratio)
Type: in vitro ADME
Conditions: test compound 1 μM; 0.5 mg/mL liver microsomes, NADPH 1 mM, 37° C.; predicted hepatic clearance (well-stirred model) divided by species blood flow; species not given
Experimental: Protocol for Liver Microsomal Stability (Extraction Ratio)
Liver Microsomal Stability. Microsomal stability studies (Chrovian et al, “1H-Pyrrolo[3,2-b]pyridine GluN2B-Selective Negative Allosteric Modulators”. ACS Med Chem Lett. 2019 Jan. 10; 10(3):261-266) were conducted on a Biomek® FX Robotic Liquid Handling Workstation (Beckman Coulter, Brea, Calif.), which consists of a 96-channel pipette head, a 12-position workstation deck, and a plate incubator. Test compounds (1 μM) were spiked in a reaction mix consisting of 100 mM potassium phosphate buffer (pH 7.4), 3 mM MgCl2, and 0.5 mg/mL liver microsomes from mouse, rat, and human (BD Gentest). The reaction was brought to 37° C. and initiated by adding NADPH to a final concentration of 1 mM. After mixing on the plate deck, 50 μL aliquots were excised from the reaction plate at 0, 5, 10, 20, 40, and 60 min and quenched with four volumes of acetonitrile spiked with […] of the internal standard phenytoin. Quenched plates were centrifuged at 5700 rpm for 10 min at 4° C., and supernatant was diluted 1:3 in water before LC/MS/MS analysis. The compound half-lives were derived from plots of the ln of percent remaining compound over time to determine the intrinsic clearance. The predicted hepatic clearance was derived from the intrinsic clearance value using equations from the well-stirred model (Current Drug Metabolism, 2008, 9, 940-951), where no correction was made plasma protein binding and the blood to plasma concentration ratio was assumed to be one. The extraction ratio (ER) was calculated by dividing the predicted hepatic clearance by species blood flow (Q), where Q is 90, 55, and 21.7 mL/min/kg for mouse, rat and human, respectively.

SMILES	Extraction Ratio @ 1 μM
CCC(=O)Cn1ncc2ncc(-c3ccc(F)c(C(F)F)c3)cc21 [Example 4, 1-[6-[3-(Difluoromethyl)-4-fluoro-phenyl]pyrazolo[4,3-b]pyridin-1-yl]butan-2-one]	0.66
CC(=O)Cn1ncc2ncc(-c3ccc(F)c(OC(F)F)c3)cc21 [Example 25, 1-[6-[3-(Difluoromethoxy)-4-fluoro-phenyl]pyrazolo[4,3-b]pyridin-1-yl]propan-2-one]	0.64
CCC(=O)Cn1nc(C)c2ncc(-c3ccc(F)c(C(F)F)c3)cc21 [Example 36, 1-(6-(3-(Difluoromethyl)-4-fluorophenyl)-3-methyl-1H-pyrazolo[4,3-b]pyridin-1-yl)butan-2-one]	0.72
CCC(=O)Cn1ncc2ncc(-c3cccc(C(F)(F)F)c3F)cc21 [Example 38, 1-[6-[2-Fluoro-3-(trifluoromethyl)phenyl]pyrazolo[4,3-b]pyridin-1-yl]butan-2-one]	0.61
CCC(=O)Cn1ncc2ncc(-c3cc(F)c(F)c(F)c3)cc21 [Example 42, 1-[6-(3,4,5-Trifluorophenyl)pyrazolo[4,3-b]pyridin-1-yl]butan-2-one]	0.63
O=C(Cn1ncc2ncc(-c3cccc(C(F)F)c3)cc21)C1CC1 [Example 61, 1-Cyclopropyl-2-[6-[3-(difluoromethyl)phenyl]pyrazolo[4,3-b]pyridin-1-yl]ethanone]	0.43
Cc1c(F)ccc(-c2cnc3cnn(CC(=O)C4CC4)c3c2)c1C [Example 78, 1-Cyclopropyl-2-[6-(4-fluoro-2,3-dimethyl-phenyl)pyrazolo[4,3-b]pyridin-1-yl]ethanone]	0.52

More lines, now with the values ahead:

Extraction Ratio @ 1 μM	SMILES
0.50	CC[S+]([O-])Cn1ncc2ncc(-c3cccc(C(F)(F)F)c3F)cc21 (racemic) [Example 86, (RS)-1-(Ethylsulfinylmethyl)-6-[2-fluoro-3-(trifluoromethyl)phenyl]pyrazolo[4,3-b]pyridine]
0.58	CCN1CC(Cn2ncc3ncc(-c4ccc(F)c(C(F)F)c4)cc32)OC1=O (racemic) [Example 131, (RS)-5-[[6-[3-(Difluoromethyl)-4-fluoro-phenyl]pyrazolo[4,3-b]pyridin-1-yl]methyl]-3-ethyl-oxazolidin-2-one]
0.46	CC[S+]([O-])Cn1ncc2ncc(-c3ccc(F)c(C(F)F)c3)cc21 (single isomer, unassigned) [Example 85, (R*)-6-(3-(Difluoromethyl)-4-fluorophenyl)-1-((ethylsulfinyl)methyl)-1H-pyrazolo[4,3-b]pyridine]
